Assay results taken from a melting point compilation (Tetko et al.; mined from patent text by program, amines drawn as free bases though some values may be those of a salt).

Row | melting point | Compound
1 | 176 °C | Cn1ncnc1COc1nn2c(-c3ccccc3F)nncc2c1-c1cccc(F)c1F
2 | 124 to 128 °C | OC[C@H](O)[C@@H](O)[C@H](O)[C@H](O)C=NN(Cc1ccccc1)c1ccccc1
3 | 105 to 106 °C | NC(=O)[C@@H]1C[C@@H]2C[C@@H]2N1C(=O)[C@@H](NC(=O)OCc1ccccc1)C12CC3CC(CC(O)(C3)C1)C2
4 | 106 to 118 °C | CCCN1NC(c2ccccc2)C2=C1C(=Cc1ccccc1)CSC2 (stereo not given)
5 | 173 to 176 °C | O=c1n(CCCCN2CCC(n3c(=O)[nH]c4ccccc43)CC2)nc2n1-c1ccccc1OC2
6 | 144 to 145 °C | COC(=O)C1CCN2C(=O)C(=O)c3cc([N+](=O)[O-])cc1c32 (stereo not given)
7 | 212 °C | COC(=O)c1cc(N)c2nc(C)nn2c1
8 | 278 to 280 °C | CC(=O)Nc1ccc(Cn2cnc3c(-c4ccco4)ncnc32)cc1
9 | 208 to 210 °C | COc1c([N+](=O)[O-])c([N+](=O)[O-])c(OC)c2[nH]c(C(F)(F)F)nc12
10 | 196 to 199 °C | Cc1c[nH]c(-c2ccc(OCC(O)CO)cc2)n1 (stereo not given)
11 | 204 to 206 °C | CSc1nc(-c2ccc(=O)n(C)n2)c(-c2ccccc2)nc1N
12 | 39.5 to 40 °C | CCCCCCCCCCOc1ccc(Br)cc1OCCCCCCCCCC
13 | 221 to 222 °C | c1ccc(-c2ccc(-c3cn4ccc5ccccc5c4n3)cc2)cc1
14 | 138 to 140 °C | CC1(C)CCCC1CNC(=O)C=Cc1ccc(C(=O)O)cc1 (stereo not given)
15 | 130 to 131 °C | O=c1cc(-c2ccccc2)oc2cc(OCCCCCCN3CCC(O)CC3)ccc12
16 | 126 to 127 °C | CCOC(=O)C(=O)CCc1ccccc1
17 | 87 °C | Cc1ccc(S(=O)(=O)N2[C@H](CCCC(=O)O)CC[C@@H]2c2ccc(F)cc2)cc1 (racemic)
18 | 162 to 164 °C | Cc1nc(Sc2cccc(C(F)(F)F)n2)sc1CC(=O)O
19 | 151 to 153 °C | COc1ccc2sc(C(N)=O)c(SCc3ccccc3)c2c1
20 | 137 to 138 °C | c1cncc(CC2(Cc3cccnc3)c3ccccc3-c3ccccc32)c1
21 | 89 to 90 °C | CCCCCCCCCCCCCCOc1cc(-c2ccccc2)c(OCC(=O)O)c(-c2ccccc2)c1

Row | melting point | Compound
22 | 90 to 92 °C | CCOC(=O)OCn1c(SCc2nccc3ccsc23)nc2ccccc21
23 | 178 °C | [N-]=[N+]=NC1(c2ccccc2Cl)C(=O)Nc2ccc(Cl)cc21 (stereo not given)
24 | 258 to 259 °C | CNC(=O)Cn1c(-c2ccc(Br)cc2)nc2cccnc21
25 | 246 °C | CN(C)c1ccc(N=Nc2ccc(C(=O)Nc3ccc4[nH]nnc4c3)cc2)cc1
26 | 159 to 162 °C | CCCc1nc(C)c2nnc3cc(OC)ccc3n12
27 | 265 to 266 °C | Cc1c(Cl)cccc1S(=O)(=O)Nc1ccc2nc(C)n(C)c2c1
28 | 131 to 132 °C | Cc1oc(-c2cc3ccccc3s2)nc1COc1ccc(CCCCn2cncn2)cc1
29 | 175 to 177 °C | CNc1nc(-c2cccc(NC(=O)Cc3ccccc3)c2)c2cc(OC)c(OC)cc2n1
30 | 154 °C | CCN(Cc1ccccc1OCc1ccccc1)c1ccc(C(=O)O)c(F)c1
31 | 141 to 143 °C | Cc1cn(-c2ccc(NC(=O)c3ccc(Cl)c(C#Cc4cnc(NC5CC5)nc4)c3)cc2C(F)(F)F)cn1
32 | 68 to 78 °C | CCCNC(=O)CCc1ccc2c(c1)c(Cc1ccc(C(=O)O)cc1OC)cn2CCC
33 | 253 to 254 °C | Nc1ccc(-c2n[nH]c3c2Cc2ccccc2-3)cc1
34 | > 320 °C | CC(=O)c1cc(C(N)=O)c(=O)[nH]c1C
35 | 196 to 198 °C | O=C1c2ccc([N+](=O)[O-])cc2C(=O)N1CC(=O)N1c2ccccc2N(Cc2ccccc2)C(=O)[C@H]2CCC[C@H]21 (relative stereo)
36 | 103 to 104 °C | CCOC(=O)C(=C(c1ccc(F)cc1)c1ccc(F)cc1)n1nnnc1C
37 | 94 to 95 °C | Cc1sc(-c2ccccc2)nc1COc1ccc(CO)cc1
38 | > 250 °C | CCn1cc(C(=O)O)c(=O)c2cc(F)c(O)cc21
39 | 100 to 101 °C | O=Cc1ccccc1Oc1ccc(Cl)cc1[N+](=O)[O-]
40 | 116 to 119 °C | Cc1oc2c(OC(C)C(N)=O)cccc2c1C (stereo not given)
41 | 105 °C | CCCCc1nc(SC)c(C(=O)OCC)n1Cc1ccccc1-c1ccccc1S(=O)(=O)NC#N
42 | 210 to 215 °C | CN(C(=O)C(F)(F)F)C1(C)CN(c2cc3c(cc2F)c(=O)c(C(=O)O)cn3C2CC2)C1

The next lines start with the molecule.

Row | Compound | melting point
43 | O=C(NCCCCN1CCC(c2ccc3c(c2)OCO3)CC1)c1ccc(NC(=O)c2ccc(Cl)cc2)cc1 | 238 to 248 °C
44 | CCOc1nc(Nc2ccc(F)c(Cl)c2)nc(NC2CCN(S(C)(=O)=O)CC2)n1 | 197 to 199 °C
45 | O=C(O)CCCCN1CCC(C(O)(c2ccc(F)cc2)c2ccc(F)cc2)CC1 | 105 to 107 °C
46 | O=S(=O)(c1ccc(Cl)cc1)C(c1ccc(CO)cn1)c1cc(F)ccc1F (stereo not given) | 151 to 152 °C
47 | O=C(NCCO)c1c([N+](=O)[O-])cccc1S(=O)(=O)NCCO | 176 to 178 °C
48 | Cc1cc2c(c(C)c1NC(=O)NC(C)(C)C)C(c1ccc(C(C)C)cc1)CO2 (single isomer, unassigned; (+)) | 205 to 206 °C
49 | COC(=O)C1=CCCN(C2CCc3ccc(OC)cc3C2)C1 (stereo not given) | 65 to 66 °C
50 | COC(=O)c1ccccc1SC1=C(O)CC(CCc2ccccc2)(c2ccccc2)OC1=O (stereo not given) | 91 to 92 °C
51 | COc1ccc2c(c1)C=C(CN1CCC3(CC1)C(=O)NCN3c1ccccc1)CC2 | 184 to 186 °C
52 | CCCN1CCC(c2ccccc2)=C(C(=O)NCC)C1 | 80 to 83 °C
53 | COC(=O)CCCC(C)(C)c1ccc(C(=O)c2ccccc2C(=O)O)cc1 | 138 to 140 °C
54 | Nc1cc(-c2nnc(CCc3cccc(F)c3)o2)ccn1 | 165 to 166 °C
55 | CCCC1=C(C(=O)OCC)C(c2cccc(Cl)c2Cl)c2c[nH]nc2N1 (stereo not given) | 220 °C
56 | COC(=O)[C@@H]1CCCC[C@@H]1C(=O)N(C)CC(=O)NO (relative stereo) | 101 to 102 °C
57 | Cc1ccsc1C(=O)NCCO[N+](=O)[O-] | 74 to 76 °C
58 | Nc1ncccc1Sc1ccccc1 | 108 to 109 °C
59 | O=C1c2ccccc2CCC1Cc1ccccc1 (stereo not given) | 50 to 51 °C
60 | NS(=O)(=O)c1ccccc1OC(Cl)=CCl | 147 to 149 °C
61 | CC(CO)(Oc1ccc(C(=O)c2ccc(Cl)cc2)cc1)C(=O)O (stereo not given) | 172 to 174 °C
62 | COC[C@]12CCC(=O)C=C1CC[C@@H]1[C@@H]2CC[C@]2(C)[C@@H](C(=O)CO)CC[C@@H]12 | 148 to 149 °C

Row | Compound | melting point
63 | COc1cc(-c2cc3ccccc3[nH]2)ccc1O | 165 °C
64 | CC(C)(C)C(=O)OCOC(=O)Cc1ccc(O)cc1 | 159 to 161 °C
65 | CCCN(Cc1cccc(-c2noc(C)n2)c1)C(=O)Nc1ccc(Br)cc1 | 113 to 114 °C
66 | COc1ccc(CC(C)N)cc1S(N)(=O)=O (stereo not given) | 180 °C
67 | CC(=O)c1cccc(NC(=O)c2ccc3oc(COCc4ccccc4)cc3c2)c1O | 92 to 94 °C
68 | Cc1ccc(C2=NOC(c3cc(Cl)cc(Cl)c3)(C(F)(F)F)C2)cc1Cl (stereo not given) | 97 to 99 °C
69 | CCS(=O)(=O)Nc1c(C)c(C)c2c(c1C)C(c1ccc(C(C)C)cc1)CO2 (stereo not given) | 132 to 133 °C
70 | O=C(O)CCCC/C=C(\c1ccc(C2=N[C@H](C(=O)NCCCCC3CCCCC3)CO2)cc1)c1cccnc1 | 61 °C
71 | O=C(O)CN(C(=O)c1cccc(C(F)(F)F)c1S)C1CCCC1 | 144 to 146 °C
72 | CS(=O)(=O)Nc1cc2occ(N)c(=O)c2cc1Oc1ccccc1 | 162 to 163 °C
73 | CCOC(=O)C1CCc2scnc2C1=O (stereo not given) | 81 to 82 °C
74 | CC(C=O)=CC=CC(C)=CC=CC=C(C)C1OCC(C)(C)CO1 | 140 °C
75 | COC(=O)C=C1CCCCC1c1cc(OC)cc(OC)c1 (stereo not given) | 80 to 81 °C
76 | O=C(c1ccccc1)c1ccc2sc(NCCO)nc2c1 | 159 °C
77 | CCC1CCC2(C)C(=CCC3C4CCC(=O)C4(C)CCC32)C1 (stereo not given) | 73 to 75 °C
78 | CC(=O)Nc1ccc(OC(C)C(=O)O)cc1 (stereo not given) | 170 to 172 °C
79 | NS(=O)(=O)C1C=CC=CC1(CCNC(=O)C=Cc1cccs1)OCc1ccccc1 (stereo not given) | 177 °C
80 | CCOc1cc2c3ccccc3c(C=O)cc2c2ccccc12 | 174 to 176 °C
81 | CSC(=NS(=O)(=O)c1ccccc1)Nc1ccc(C#N)cc1 | 150 °C
82 | CCOC(=O)c1cnc2ccc(SC)cc2c1O | > 260 °C

Row | Compound | melting point
83 | O=C(O)CCCNC(=O)c1ccc(NC(=O)c2ccccc2O)cc1 | 211 to 213 °C
84 | O=C(O)Cc1c(C(=O)c2ccc(F)cc2)[nH]c2cc(Cl)ccc12 | 181 to 183 °C
85 | O=C(O)c1csc2ccc(O)cc12 | 262 to 263 °C
86 | CN(c1cccc2cc(-c3nccs3)[nH]c12)S(=O)(=O)c1ccsc1COCC(=O)O | 189 °C
87 | Cn1cc(C(=O)c2ccc(Cl)cc2)cc1C(=O)CCl | 130 to 132 °C
88 | CCCc1c(OCCCOc2ccccc2C(=O)NCCCCc2cccnc2)ccc(C(C)=O)c1O | 104 to 107 °C
89 | CCC(=NOC)C(=NO)C(=O)NC | 168 to 170 °C
90 | O=C(Nc1cccc(F)c1)N1CCc2cc(S(=O)(=O)N3CCN(c4cccc(Cl)c4)CC3)ccc21 | 208 to 210 °C
91 | COc1cc2ccccc2c(OC)c1C(=O)O | 119 to 123 °C
92 | c1cncc(C2=NNC(c3cccnc3)S2)c1 (stereo not given) | 77 to 78 °C
93 | CC(C)(C)Oc1cccc(C[C@@H](C(=O)O)[C@@H](O)c2ccc(F)cc2)c1 (racemic) | 131 to 132 °C
94 | COCc1c[nH]c(-c2ccc(OCC(O)CO)cc2)n1 (stereo not given) | 154 to 156 °C
95 | CCOC(=O)c1ccc(NCC(C)Oc2cccc3ccccc23)cc1 (stereo not given) | 110 to 112 °C
96 | NS(=O)(=O)c1ccc(-n2nc(CC(=O)O)cc2-c2ccc(Cl)cc2)cc1 | 120 to 122 °C
97 | O=C(CCCI)c1ccc(F)cc1O | 41.4 °C
98 | COc1ccc(N2CCOCC2)c2sc(NC(=O)N3CC4CCC3CO4)nc12 (stereo not given) | 164 to 170 °C
99 | Cc1cccc(C(=O)NC(Nc2c(Nc3cccnc3Cl)c(=O)c2=O)C(C)(C)C)c1 (stereo not given) | 238 to 239 °C
100 | CC1(C)[C@H](C=C(Cl)C(F)(F)F)[C@@H]1C(=O)NCc1cccc2c1CCCc1ccccc1-2 (relative stereo) | 65 to 70 °C
